The values below are quoted from earlier work in US8388671B2, “Methods for treatment of aneurysmal tissue” (Medtronic Vascular, Inc., priority 2004, dated 2013).

The test system of series [1] is mice.
The test system of series [2] is rabbits.

For the substance “hydroxy-polyethoxy-dodecane [Polidocanol]”, in series [1], the LD50 in mice is 1200 mg/kg. The LD50 in rabbits in series [2] is reported as 200 mg/kg. Also, the “LD50 relative to that of Novocain” value in series [2] (LD50 greater than that of Novocain) is given as “approximately 5 times”.
